Reference: paper PMC12169608, “Peptidomimetic Phenoxymethyl Ketone Warheads as Potent Dual-Mode Inhibitors against SARS-CoV‑2 M^pro and Cathepsin” (Journal of Medicinal Chemistry, 2025)
Converted amounts (≈) assume the structure as drawn.

Key:
SARS-CoV-2 = test: microbe, parasite or virus in culture; format: cell-based; settings: Severe acute respiratory syndrome coronavirus 2, Vero C1008, read-out: SARS-CoV-2 CPE reduction assay pEC50 (converted)
SARS-CoV-2 M^pro = SARS-CoV-2 M^pro (Severe acute respiratory syndrome coronavirus 2, UniProt P0DTD1); test: biochemical; format: biochemical; settings: read-out: M^pro biochemical assay pIC50 (converted)
in vitro [1] = settings: African green monkey
[2] = biological target: mouse cathepsin B (mCTSB) (Mus musculus, UniProt P10605); test: mCTSB biochemical assay; settings: read-out: pIC50 (mouse CTSB) (converted)
[3] = system: luciferase-expressing VSV (ΔG) pseudotyped with Spike from SARS-CoV-2; test: microbe, parasite or virus in culture; format: cell-based; settings: Vesicular stomatitis virus, Vero C1008, read-out: Entry reporter assay pEC50 (converted)
[4] = biological target: mouse cathepsin L (mCTSL) (Mus musculus, UniProt P06797); test: mCTSL biochemical assay; settings: read-out: pIC50 (mouse CTSL) (converted)
[5] = biological target: human cathepsin B (hCTSB) (Homo sapiens, UniProt P07858); test: hCTSB biochemical assay
in vitro [6] = settings: mouse, hepatocytes; for hepatocyte CLint at 2 h, 2 µM: CLint (mouse hepatocytes)
[7] = 3 h, 2 µM
[8] = biological target: T1, human cathepsin L (hCTSL) (Homo sapiens, UniProt P07711); test: hCTSL biochemical assay
T1 construct: purchased R&D Systems

physchem [9] = settings: pH 7.4
in vitro [10] = settings: mouse, plasma, mouse plasma protein binding
physchem [11] = settings: pH 7.4; remark: listed apart in the source
[12] = Mouse hepatocyte stability; settings: mouse, cryopreserved hepatocytes

Chain of mouse cathepsin L (mCTSL) (P06797 114-334): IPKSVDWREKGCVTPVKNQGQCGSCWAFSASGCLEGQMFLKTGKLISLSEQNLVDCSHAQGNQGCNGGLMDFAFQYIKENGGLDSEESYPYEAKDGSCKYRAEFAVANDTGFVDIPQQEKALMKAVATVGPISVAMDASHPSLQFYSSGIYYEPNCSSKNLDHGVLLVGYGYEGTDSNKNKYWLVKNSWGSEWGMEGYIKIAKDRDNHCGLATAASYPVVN
Chain of mouse cathepsin B (mCTSB) (P10605 80-339): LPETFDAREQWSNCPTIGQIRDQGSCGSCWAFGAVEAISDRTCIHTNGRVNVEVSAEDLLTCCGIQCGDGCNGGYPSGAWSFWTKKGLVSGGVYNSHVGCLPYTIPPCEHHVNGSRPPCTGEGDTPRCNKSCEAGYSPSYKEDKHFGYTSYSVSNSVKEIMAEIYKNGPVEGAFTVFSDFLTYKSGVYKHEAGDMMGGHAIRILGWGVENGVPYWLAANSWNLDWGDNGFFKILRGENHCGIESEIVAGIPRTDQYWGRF
T1 sequence (P07711 114-333): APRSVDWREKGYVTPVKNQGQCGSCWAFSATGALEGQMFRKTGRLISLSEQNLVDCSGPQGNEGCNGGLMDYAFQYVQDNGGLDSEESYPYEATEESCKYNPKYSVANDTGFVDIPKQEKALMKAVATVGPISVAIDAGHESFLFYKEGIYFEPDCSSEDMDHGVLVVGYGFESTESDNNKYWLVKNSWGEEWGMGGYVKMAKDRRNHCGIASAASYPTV

| SMILES | EC50 (SARS-CoV-2) | IC50 (SARS-CoV-2 M^pro) | CC50 (in vitro [1]) | IC50 [2] | EC50 [3] | IC50 [4] | hCTSB biochemical assay pIC50 [5] | hepatocyte CLint at 2 h, 2 µM (in vitro [6]) | mouse plasma protein binding, fraction bound (Fb) [7] | hCTSL biochemical assay pIC50 [8] | logD at 1 h (physchem [9]) | fraction unbound at 3 h, 2 µM (in vitro [10]; fraction bound (Fb)) | fraction unbound at 3 h, 2 µM (in vitro [10]; fraction unbound (Fu)) | hepatocyte CLint at 1 µM (in vitro [6]; CLint (mouse hepatocytes + ritonavir 4:1)) | solubility kinetic at 24 h (physchem [11]) | half-life at 1 µM [12] | fraction unbound at 3 h, 800 µM (in vitro [10]; fraction bound (Fb)) | fraction unbound at 3 h, 800 µM (in vitro [10]; fraction unbound (Fu)) |
| --- | --- | --- | --- | --- | --- | --- | --- | --- | --- | --- | --- | --- | --- | --- | --- | --- | --- | --- |
| O=C(N[C@@H](Cc1c[nH]c2ccccc12)C(=O)N[C@@H](C[C@@H]1CCNC1=O)C(=O)COc1c(F)c(F)c(CO)c(F)c1F)c1cc2ccccc2[nH]1 [compound 5, N-((S)-3-(1H-Indol-3-yl)-1-oxo-1-(((S)-3-oxo-1-((S)-2-oxopyrrolidin-3-yl)-4-(2,3,5,6-tetrafluoro-4-(hydroxymethyl)phenoxy)butan-2-yl)amino)propan-2-yl)-1H-indole-2-carboxamide] | 1170 nM | 41.7 nM | > 10 µM | 12.3 nM | 5.75 µM | 224 nM | 6.54 | 182 µL/min/1e6 cells | 98.79% | 7.64 | 1.5 | 0.0121 | 0.0121 |  |  |  |  |  |
| COc1cccc2[nH]c(C(=O)N[C@@H](Cc3cccc(F)c3)C(=O)N[C@@H](CCn3cn[nH]c3=O)C(=O)COc3c(F)c(F)c(C(C)(C)O)c(F)c3F)cc12 [compound 13, N-((S)-3-(3-Fluorophenyl)-1-oxo-1-(((S)-2-oxo-5-(5-oxo-1,5-dihydro-4H-1,2,4-triazol-4-yl)-1-(2,3,5,6-tetrafluoro-4-(2-hydroxypropan-2-yl)phenoxy)pentan-3-yl)amino)propan-2-yl)-4-methoxy-1H-indole-2-carboxamide] | 1660 nM | 295 nM | > 10 µM | < 6.92 nM |  | 23.4 nM | 6.68 | 78.8 µL/min/1e6 cells |  | 8.71 | 2.7 |  |  | 49.3 µL/min/1e6 cells | 6.78 µM (≈ 5.05 µg/mL) | 22 min | 0.0031 | 0.0028 |
